Assay results as given in patent US8697629B2, “Modulation of intracellular signaling” (Angstrom Pharmaceuticals, Inc., priority 2010, dated 2014).

What was measured:
Type in all cases: cell-based
A2780 cells = assay: Adhesion of A2780 cells to hyaluronic acid; settings: immobilized HA; 1 or 10 μM Å6
Experimental: In FIG. 12 A2780 cells were cultured overnight with or without 10 μM Å6 or 100 ng/ml PMA. The cells were then detached, washed and loaded with 20 μg/ml CFDA-SE for 30 min at 37° C. After washing, the cells were resuspended in PBS containing 10% FCS and triplicate aliquots representing 100,000 cells incubated for 30 min at room temperature with no additions, 1 or 10 μM Å6 or with 20 ng/ml IM7, a blocking anti-CD44 rat monoclonal antibody. The cells were then placed into microtiter wells that had been coated with 50 ul of 1 mg/ml HA overnight and blocked for 30 min with 10% FCS. The cells were allowed to adhere at room temperature for 30 min after which, the wells were decanted and washed 3 times. The fluorescence in each well was assessed (excit./emiss.: 460/536 nm) and the mean fluorescence values (+/standard deviation) of the triplicate determinations calculated.

CD44 = molecular target: T1, CD44 (Homo sapiens, UniProt P16070); assay: FACs analysis of anti-CD44 (DF1485) binding to SKOV3 cells in the presence of Å6; settings: pre-incubation with Å6 10 or 30 min on ice
T1 construct: endogenous in cells; host or cells: SKOV3 cells
T1 sequence (P16070 21-742): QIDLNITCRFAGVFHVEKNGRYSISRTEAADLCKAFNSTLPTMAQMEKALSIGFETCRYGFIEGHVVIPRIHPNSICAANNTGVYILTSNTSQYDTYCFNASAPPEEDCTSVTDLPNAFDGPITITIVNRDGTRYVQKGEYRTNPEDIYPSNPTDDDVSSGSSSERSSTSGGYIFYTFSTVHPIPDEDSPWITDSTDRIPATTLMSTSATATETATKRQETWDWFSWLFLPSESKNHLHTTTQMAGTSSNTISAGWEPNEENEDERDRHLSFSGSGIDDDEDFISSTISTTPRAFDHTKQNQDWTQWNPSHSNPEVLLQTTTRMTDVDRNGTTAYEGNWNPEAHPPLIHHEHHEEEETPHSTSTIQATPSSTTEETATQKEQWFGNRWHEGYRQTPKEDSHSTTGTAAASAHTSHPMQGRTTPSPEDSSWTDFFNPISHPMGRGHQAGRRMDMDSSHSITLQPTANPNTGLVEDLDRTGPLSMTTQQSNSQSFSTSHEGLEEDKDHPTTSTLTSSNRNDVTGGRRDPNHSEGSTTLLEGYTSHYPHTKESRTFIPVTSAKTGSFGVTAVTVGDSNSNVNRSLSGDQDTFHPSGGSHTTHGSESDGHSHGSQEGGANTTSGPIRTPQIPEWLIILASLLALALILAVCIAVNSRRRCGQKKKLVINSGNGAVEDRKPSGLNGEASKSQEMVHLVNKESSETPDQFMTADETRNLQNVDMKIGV
Experimental: In FIG. 4 SKOV3 cells were detached from their culture flasks by brief trypsinization, washed twice with DPBS and incubated on ice with the indicated concentrations of Å6 for 10 min (exp. 1) or 30 min (exp. 2). Anti-CD44 (DF1485; Santa Cruz Biotech.) or its isotype control were then added to final concentrations of 1 μg/ml (exp. 1) or 1 and 0.5 μg/ml (exp. 2) and the cells incubated for 1 hr on ice. The cells were washed once and incubated with FITC-conjugated donkey anti-mouse IgG (H+L) for 30 minutes on ice and then subjected to FACS analysis with a Beckman Coulter Epics XL-MCL cytofluorimeter. Data analysis was performed using the Coulter Epics software. Note: Data are presented as mean fluorescence intensities (MnI) obtained with the MnI of the negative control in each experiment adjusted to <0.5 during data collection. […] Similar CD44 expression in ovarian cancer lines using different anti-CD44 antibodies is assessed in FIG. 5, for which the MnI values are summarized in FIG. 6.

SKOV3 cells = assay: Boyden chamber chemotaxis/migration of SKOV3 cells
Experimental: A2780 (FIG. 10a) and SKOV3 (FIG. 10b) cells were incubated with the indicated concentrations of Å6 peptide for 30 min at 37° C. Aliquots representing 6,000 cells were placed on quadruplicate, CnI-coated filters (8 μm pores) in Boyden chambers and the cells allowed to migrate overnight in response to 10 ng/ml VEGF in NIH3T3-conditioned media containing the indicated concentrations of Å6. Upon completion of migration, the apical surfaces of the membranes were wiped clean and the migrating cells on the basal surface were stained with Geimsa stain and the cells present in representative fields of the membranes counted. Data represent the averages+/−standard deviations obtained from the replicate filters. […] This provides further confirmation that CD44 is the target for the Å6 peptide.
SKOV3 cells are harvested by trypsinization and washed once with RPMI−0.5% BSA. Next, the cells are re-suspended in RPMI+0.5% BSA @ 6E4/mL (6000 cells/100 μL). The peptide is pre-treated with 500 μL of cells added to 500 μL peptide NASAPPEE (2× concentration, final conc. at 100, 10, 1, 0.1, 0.01, 0.001 uM) and the mixture incubated 30 minutes at 37° C., under 5% CO2. The Boyden chamber is assembled by: Placing in the bottom chambers: 220 μL of serum/BSA free DMEM or NIH3T3CM+10 ng/ml VEGF or NIH3T3CM+10 ng/ml VEGF+peptide. Place 8 μm filters on the top of the bottom chambers. The 8 μm filters are coated with 1 mg/ml collagen I at 4° C. overnight, washed with PBS twice, air dry before use. Add 200 μL of cells with or without peptide pretreatment to the top of Boyden chamber. Note that the peptide is in both top and bottom chambers. Cells migrate overnight at 37° C., under 5% CO2 in incubator. Next, Boyden chambers are disassembled the and filters collected. The cells on the filters after collection are treated with −20° C. methanol for 3 minutes at room temperature and stained with 30% Geimsa for 7 minutes at room temperature, and washed with water twice. The filters are mounted on slides, air dried and the cells counted.
Cell numbers were obtained by counting the cells in four fields of filters using a 40× objective. The cells migrating into the bottom chambers were also counted as follows: a) 200 μL fluid in the bottom chamber was transferred to a well of 96-well plate; b) The plate was centrifuged at 1200 rpm for 5 minutes; c) 180 μL of supernatant was removed; d) The cell pellet was resuspended with the remaining 20 μL fluid and the cells counted using a hemocytometer. […] This compares favorably to the Å6 peptide which is effective between 5 μM and 100 nM.

acetyl-Lys-Pro-Ser-Ser-Pro-Pro-Glu-Glu-NH2 (Ac-KPSSPPEE-NH2) [Å6]
binding of A2780 cells to HA (A2780 cells): does not substantially modulate
binding of DF1485 anti-CD44 to SKOV3 cells (MnI) (CD44): inhibits the binding of DF1485 anti-CD44 to SKOV3 cells
SKOV3 migration (SKOV3 cells; 10 ng/ml VEGF in NIH3T3-conditioned media, overnight): strong inhibition
cell migration inhibition, lower end of effective concentration range (SKOV3 cells; SKOV3): 100 nM
cell migration inhibition, upper end of effective concentration range (SKOV3 cells; SKOV3): 5 µM
